The source of these data is US11912652B1, “8-(2-hydroxybenzylideneamino)naphthalene-1,3-disulfonic acid as an antioxidant compound” (KING FAISAL UNIVERSITY, priority 2023, dated 2024).

A short description of this experiment: DPPH (2,2-diphenyl-1-picrylhydrazyl) radical scavenging antioxidant test. The following applies: 517 nm; for Inhibition (radical scavenging inhibition): 0.2 mL DPPH (0.75 mM), compound 3 μM in ethanol, 30 minutes in the dark. It counts as biochemical. The procedure: The antioxidant properties of the 8-(2-hydroxybenzylideneamino)naphthalene-1,3-disulfonic acid compound were studied by adding 0.2 mL DPPH (0.75 mM)) to 8-(2-hydroxybenzylideneamino)naphthalene-1,3-disulfonic acid (III) (3 μM) in ethanol. After 30 minutes of incubation in the dark, the absorbance was read against a blank at 517 nm. Ascorbic acid (vitamin C) was used as standard antioxidants (positive control). A blank sample was prepared by 0.2 ml of DPPH in 3 mL ethanol. A negative control sample was run using ethanol instead of the sample. The radical scavenging inhibition was calculated using the following equation: […]
The antioxidant activity for the synthesized compound is listed in Table 1, using Vitamin C as a reference.

With `O=S(=O)(O)c1cc(S(=O)(=O)O)c2c(/N=C/c3ccccc3O)cccc2c1` [Product III, 8-(2-hydroxybenzylideneamino)naphthalene-1,3-disulfonic acid], the “Inhibition (radical scavenging inhibition)” value is recorded as 54%. For the same compound, for the setting “DPPH in vitro test, vitamin C as positive control”, the “antioxidant potential compared to vitamin C (in words)” value is on record as “high potential as an antioxidant”.

As to `O=C1O[C@H]([C@@H](O)CO)C(O)=C1O` [vit c, Ascorbic acid, reference compound], the “Inhibition (radical scavenging inhibition)” value is on record as 74%.
